The test system of one test is cataleptic rat. Kind of test: Reversal of catalepsy in rats (oral ED50). The format is in vivo. The note with it: rats; for ED50: Rattus norvegicus, read-out: oral ED50 value (calculated dose to reverse catalepsy by 50%); for ED50 / oral ED50 value (calculated dose to reverse catalepsy by 50%): oral. The method, then: Extrapyramidal motor side effects in e.g. rodents are measured by the ability of a drug to induce catalepsy. Catalepsy is defined as a state where an animal continues to remain in an unnormal (nonphysiological ‘uncomfortable’) posture for a long time (e.g.: M. E. Stanley and S. D. Glick, Neuropharmacology, 1996; 15: 393-394; C. J. E. Niemegeers and P. Janssen, Life Sci., 1979, […]). For example, if a hindpaw of a rat is placed on an elevated level, e.g. a platform elevated 3 cm above ground level, a normal rat immediately withdraws the hindpaw from the platform to the ground level. A cataleptic rat remains in this unnatural posture even for minutes.

For test [1], the system named is schizophrenic inpatients on long-term antipsychotic treatment. Briefly: Cross-over add-on study in tardive dyskinesia (AIMS). The format is in vivo, human. The note with it: up to 20 mg t.i.d., vs placebo period, typical study. From the text: Tardive dyskinesia is a common adverse effect of long-term treatment with neuroleptics. A typical study to investigate the efficacy of the compounds according to the invention in tardive dyskinesia is described in the following. 32 schizophrenic (DSM-III-R) inpatients aged 25-60 years on long-term stable antipsychotic treatment (duration of at least 5 years) entered the study. (−)-(R)-2-{4-[[3,4-dihydro-2H-benzopyran-2-yl)-methyl]amino]butyl}-1,2-benzoisothiazol-3-(2H)-on-1,1-dioxide monohydrochloride or placebo is administered as “add on” to the antipsychotic treatment, which is kept constant during the whole study. The dose of blinded medication is titrated over a period of 3 weeks in a range from I to 20 mg t.i.d. Then the medication is maintained under double-blind conditions for 2 weeks. After a 2-week wash-out period, the test drugs are crossed over. Assessments of tardive dyskinesia by means of the Abnormal Involuntary Movement Scale (AIMS, see above) and of Parkinsonian extrapyramidal side effects (UPDRS, see above) are made pretreatment and posttreatment.

A further test deals with MSA patients. Kind of test: Add-on study in MSA patients (UPDRS). In kind it is in vivo, human. The note with it: 1 to 20 mg t.i.d., typical study. The method, then:
The study design is similar to that described above for Parkinson's disease. (−)-(R)-2-{4-[[3,4-dihydro-2H-benzopyran-2-yl)-methyl]amino]butyl}-1,2-benzoisothiazol-3-(2H)-on-1,1-dioxide monohydrochloride or placebo is titrated as “add on” to the conventional treatment (dose range 1 to 20 mg t.i.d.). After a double-bllind dose-finding phase of 3 weeks during which the individual dose is identified for each patient on the basis of tolerability and efficacy, the dose is maintained unchanged for 3 additional weeks. Before the start of titration and at the end of the treatment period a complete UPDRS assessment is performed in each patient (primary outcome measure).

Test [2] deals with patients with advanced idiopathic Parkinson's disease complicated by “peak-dose” dyskinesia. Kind of test: Double-blind add-on study in advanced idiopathic Parkinson's disease with peak-dose dyskinesia (diary card). The format is in vivo, human. The note with it: 2.5 to 10 mg b.i.d., typical study. The source says: A typical study to investigate the efficacy of the compounds according to the invention for adverse effects in Parkinson's disease is described in the following. 40 patients of either sex with advanced idiopathic Parkinson's disease complicated by “peak-dose” dyskinesia participate in a double-blind study. The main inclusion criteria are Hoehn & Yahr stage≧2.5 (lit.: Hoehn H. M. et al, Neurology 1967; 17: 427-442), aged 40-75 years, symptom duration of at least 5 years, and a l-dopa treatment duration of at least 3 years. (−)-(R)-2-{4-[[3,4-dihydro-2H-benzopyran-2-yl)-methyl]amino]butyl}-1,2-benzoisothiazol-3-(2H)-on-1,1-dioxide monohydrochloride or placebo is administered as “add on” to the conventional Parkinson treatment, which is maintained unchanged during the whole study. The dose of blinded medication is titrated over a period of 3 weeks in a range from 2.5 to 10 mg b.i.d. Then the medication is kept constant for 3 weeks. Before the start of titration and at the end of the treatment period the patients fill a diary card in 30 min. inervalls for 48 hours. The diary card differentiates 5 different states: (1) “on” without dyskinesia, (2) “on” with troublesome dyskinesia, (3) “on” with non-troublesome dyskinesia, (4) “off” time, and (5) time asleep (Hauser RA et al., Clin. Neuropharmacol., 2000, 23, 75-81). The primary outcome variable of the protocol is the change in “on” time with troublesome dyskinesia. […] The other parameters are not changed.

The subject of test [3] is patients with cervical dystonia (spasmodic torticollis). Kind of test: Double-blind placebo-controlled study in cervical dystonia (TWSTRS). To be noted: 2.5 mg to 20 mg b.i.d. The format is in vivo, human.
Test [4] relates to advanced Parkinson patients. To be noted: cited from earlier work.

Broadly, the ED50 is the midpoint of the dose-response relation.

Consider `CC1(C)CC(=O)N(CCCCN2CCN(c3ncccn3)CC2)C(=O)C1` [gepirone], for which the ED50 with cataleptic rat is 16 mg/kg.
Take `Cl.O=C1c2ccccc2S(=O)(=O)N1CCCCNC[C@H]1CCc2ccccc2O1` [(−)-(R)-2-{4-[[3,4-dihydro-2H-benzopyran-2-yl)-methyl]amino]butyl}-1,2-benzoisothiazol-3-(2H)-on-1,1-dioxide monohydrochloride]: the AIMS scores entry in test [1] was “significantly lower than during placebo period”. Further, the “UPDRS (Parkinson symptoms)” value in the test with MSA patients is “significant clinical improvement of Parkinson symptoms”. The “oral ED50 value (calculated dose to reverse catalepsy by 50%)” value in the test on cataleptic rat was 0,6 mg/kg. In addition, the “potency in reversing catalepsy compared to other 5-HT1A agonists” value in the test on cataleptic rat (oral ED50 vs ipsapirone, buspirone, gepirone, tandosirone) is recorded as 30-100 times. In addition, in test [2], the other diary parameters result is “not changed”, the ““on” time with troublesome dyskinesia” value is on record as “significant reduction” and the ““on” time without dyskinesia” value is “significantly increase”. In addition, the TWSTRS scores result in test [3] is reported as “significant improvement”.
In the case of `O=C1CC2(CCCC2)CC(=O)N1CCCCN1CCN(c2ncccn2)CC1` [buspirone], the ED50 in the test with cataleptic rat is 30 mg/kg. For the same compound, in test [4], the anti-dyskinetic properties result was “moderate anti-dyskinetic properties”.
In the case of `O=C1[C@@H]2[C@H]3CC[C@H](C3)[C@@H]2C(=O)N1CCCCN1CCN(c2ncccn2)CC1` [tandosirone], the “oral ED50 value (calculated dose to reverse catalepsy by 50%)” value with cataleptic rat was 60 mg/kg.
On to `O=C1c2ccccc2S(=O)(=O)N1CCCCN1CCN(c2ncccn2)CC1` [ipsapirone], for which the ED50 in the test with cataleptic rat is 23 mg/kg.

Values taken from US20040235920A1, “Novel use of substituted aminomethyl chromans for the treatment of movement disorders and of adverse effects induced by drugs administered to treat extrapyramidal movement disorders” (priority 2001, published 2004).
